# Ends that are not written are not given here. Peptide text beside a SMILES is read from it.
# How the values were obtained:
# [1] = tested on: cancer cell lines; experiment: MTT colorimetric assay, panel of over 30 cancer cell lines; format: cell-based, human; conditions: 48 h
# Procedure: (§1) The culture medium used for the cancer cell lines included 10% fetal bovine serum (Gibco, Grand Island, NY, USA) and 1% penicillin/streptomycin (Gibco) in 5% CO2 at 37 °C. Cells were seeded into 96-well tissue culture plates at a concentration of 1 × 10^4 cells per 200 μL per well and allowed to settle overnight. The cells were then treated with serial dilutions of various ACPs. After 48 h of incubation, cell viability for each line was assessed using the MTT colorimetric assay (Sigma-Aldrich, St. Louis, MO, USA). The peptide preparation and dilution in our anticancer assays are as follows: ACPs (10 mg) were dissolved in 100 μL of DMSO to generate 100 mg/mL stock solutions. These stock solutions were then diluted 100 times with a culture medium to obtain a 1 mg/mL solution. Finally, serial dilutions were prepared in a culture medium containing 1% DMSO to achieve the desired ACP concentrations for the MTT assay.
# [2] = tested on: BT474 cells; format: cell-based, human; conditions: MTT, 48 h
# Procedure: as §1
# [3] = tested on: A431; format: cell-based, human; conditions: Skin, MTT assay
# Procedure: as §1
# [4] = tested on: A549; format: cell-based, human; conditions: Lung, MTT assay
# Procedure: as §1
# [5] = tested on: DBTRG brain tumor cells; format: cell-based; conditions: human
# Procedure: as §1
# [6] = tested on: Hs578T; format: cell-based, human; conditions: Breast, MTT assay
# Source text: Supplement ijms-25-06848-s001.zip/IJMS_Supplementary Table S2.xlsx, sheet "Table S2" | column: ACP1; ACP2; ACP3; ACP4; ACP5; ACP6; ACP7; ACP8; ACP9; ACP10; ACP11; ACP12
# [7] = tested on: Burkitt lymphoma-derived Daudi cell line; format: cell-based, human; conditions: MTT, 48 h
# Procedure: as §1
# [8] = tested on: triple-negative breast cancer cell line MDA-MB-231; format: cell-based, human; conditions: MDA-MB-231, MTT, 48 h
# Procedure: as §1
# [9] = tested on: HepG2; format: cell-based, human; conditions: HepG2 liver cancer cells, MTT, 48 h
# Procedure: as §1
# [10] = tested on: Mahlavu; format: cell-based, human; conditions: Mahlavu liver cancer cells, MTT, 48 h
# Procedure: as §1
# [11] = tested on: DU145 prostate cancer; format: cell-based, human; conditions: MTT, 48 h
# Procedure: as §1
# [12] = tested on: HT1080 fibrosarcoma; format: cell-based, human; conditions: MTT, 48 h
# Procedure: as §1
# [13] = tested on: SKOV-3 ovarian carcinoma; format: cell-based, human; conditions: MTT, 48 h
# Procedure: as §1
# [14] = endometrial and hypopharyngeal cancer cells
molecule,measurement,setting,value
CC[C@H](C)[C@H](NC(=O)[C@H](CS)NC(=O)[C@@H]1CCCN1C(=O)[C@@H](NC(=O)[C@H](Cc1ccccc1)NC(=O)[C@@H](NC(=O)[C@H](CS)NC(=O)[C@H](CO)NC(=O)[C@H](CCC(=O)O)NC(=O)CNC(=O)[C@H](CS)NC(=O)[C@@H]1CCCN1C(=O)[C@@H](NC(=O)[C@@H](NC(=O)CN)C(C)C)[C@@H](C)CC)C(C)C)[C@@H](C)CC)C(=O)N[C@@H](CO)C(=O)N[C@H](C(=O)N[C@@H](CC(C)C)C(=O)N[C@@H](CC(C)C)C(=O)NCC(=O)N[C@@H](CS)C(=O)N[C@@H](CO)C(=O)N[C@@H](CS)C(=O)N[C@@H](CCCCN)C(=O)N[C@@H](CC(N)=O)C(=O)N[C@@H](CCCCN)C(=O)N[C@H](C(=O)N[C@@H](CS)C(=O)N[C@@H](Cc1ccc(O)cc1)C(=O)N[C@@H](CCCNC(=N)N)C(=O)N[C@@H](CC(N)=O)C(=O)O)C(C)C)[C@@H](C)O [ACP6] (H-GVIPCGESCVFIPCISTLLGCSCKNKVCYRN-OH),"anticancer effects, in words",[1]; [14],affected
same,"anticancer effects, in words",[1]; liver and breast cancers,notable anticancer effects
CC[C@H](C)[C@H](NC(=O)[C@@H]1CCCN1C(=O)[C@H](Cc1c[nH]c2ccccc12)NC(=O)[C@H](CO)NC(=O)[C@H](CS)NC(=O)[C@H](CO)NC(=O)[C@H](CS)NC(=O)CNC(=O)[C@@H]1CCCN1C(=O)[C@@H](NC(=O)[C@H](CC(N)=O)NC(=O)[C@H](CS)NC(=O)[C@@H](NC(=O)CNC(=O)CNC(=O)[C@H](Cc1ccccc1)NC(=O)[C@H](CS)NC(=O)[C@@H](NC(=O)[C@H](CCC(=O)O)NC(=O)CNC(=O)[C@H](CS)NC(=O)[C@@H](NC(=O)[C@@H](NC(=O)[C@@H]1CCCN1C(=O)[C@@H](NC(=O)[C@@H](NC(=O)[C@@H](N)CO)C(C)C)[C@@H](C)O)[C@@H](C)CC)C(C)C)[C@@H](C)O)[C@@H](C)O)[C@@H](C)O)C(=O)N[C@@H](CS)C(=O)N[C@H](C(=O)N[C@@H](CCCCN)C(=O)O)[C@@H](C)O [ACP10] (H-SVTPIVCGETCFGGTCNTPGCSCSWPICTK-OH; N-terminus and C-terminus assumed),"cytotoxicity, in words",[2],pronounced cytotoxicity
EQQQQQQPQNRRFRE [ACP11],Cytotoxicity against cancer cell line A431,[3],>1000
same,Cytotoxicity against cancer cell line A549,[4],>1000
same,IC50,[5],32.1 µM
same,Cytotoxicity against cancer cell line Hs578T,[6],>1000
FKGGGPYGQGVTRGQDLSGKDF [ACP12],Cytotoxicity against cancer cell line A549,[4],>1000
same,"anticancer activity, in words",[7],demonstrated anticancer activity
same,"anticancer activity, in words",[8],demonstrated anticancer activity
GLLGVLGSVAKHVLPHVVPVIAEHL [ACP9],"cytotoxicity, in words",[9],particularly effective
same,"cytotoxicity, in words",[10],particularly effective
KSCCPNTTGRNIYNTCRFGGGSREVCASLSGCKIISASTCPSYPDK (cysteines drawn unpaired) [ACP7],"anticancer effects, in words",[1]; [14],affected
same,"anticancer effects, in words",[1]; liver and breast cancers,notable anticancer effects
YKQCHKKGGHCFPKEKICIPPSSDFGKMDCRWRWKCCKKGSG (cysteines drawn unpaired) [ACP8],"selective cytotoxicity, in words",[11],selectively targeting
same,"selective cytotoxicity, in words",[12],selectively targeting
same,"selective cytotoxicity, in words",[13],selectively targeting

# — publication PMC11240926, “Integrating In Silico and In Vitro Approaches to Identify Natural Peptides with Selective Cytotoxicity against Cancer Cells” (International Journal of Molecular Sciences, 2024)
